Data published in US20230190835A1, “PROBIOTIC BACTERIA FOR TREATING ALZHEIMER'S DISEASE” (RRW B.V., priority 2020, published 2023).

System: C. elegans nematode strain with inducible amyloid-β accumulation (CL4176)
Test: Alzheimer's disease paralysis assay
Format: in vivo
Text: The effect of probiotic bacteria and their combinations with other active agents has been studied in C. elegans nematode strains as an animal model for amyloidoses such as Alzheimer's disease. These strains accumulate amyloid-β peptides that form plaques in the nematodes and lead to paralysis of the animals. In certain strains, such as strain CL4176, Aβ accumulation occurs only in response to heat shock. Thus, the Alzheimer's disease pattern is inducible in these strains. The number of paralyzed nematodes after a certain period of time following induction of Aβ accumulation indicates the extent of Alzheimer's disease. Thus, the effect of certain substances to which the nematodes are exposed on the number of paralyzed animals is a measure of the anti-Alzheimer effect of these substances.
Nematodes of strain CL4176 were synchronized at the young larval stage and allowed to grow to the L4 stage on normal growth medium for 72 h at 16° C. The probiotic bacteria to be tested were added to the growth medium. Then the nematodes were exposed to the test substance and the temperature was increased to 25° C. This heat shock induced Aβ accumulation, simulating the onset of Alzheimer's disease. Approximately every 24 h, the number of animals that were still mobile and those that were paralyzed as a result of Aβ accumulation was determined.
C. elegans of strain CL4176 were exposed to a mixture of different probiotic bacteria at a bacterial concentration of 50 cfu (colony-forming units) in this assay. The bacterial mixture contained the following bacterial species: Enterococcus faecium, Bifidobacterium longum, Streptococcus thermophilus, Lactobacillus acidophilus, Lactobacillus plantarum and Bifidobacterium breve. […] In another series of tests, the nematodes were additionally treated with cannabidiol (CBD).
The two probiotic bacterial strains Lactobacillus rhamnosus and Lactobacillus plantarum were allowed to grow to stationary phase and mixed with the normal diet of nematodes (OP50) E. coli bacteria). C. elegans of strain CL4176 at L4 larval stage were exposed to the probiotic bacteria and other active agents in the induction of Aβ accumulation by increasing the temperature to 25° C. The number of paralyzed animals was checked every 24 h and determined after 96 h.
In the described Alzheimer's disease animal model assay, the effect of the bacterial strain Pseudomonas fluorescens was tested. Upon induction of Aβ accumulation by increasing temperature to 25° C., nematodes were exposed to Pseudomonas fluorescens bacteria, curcumin or CBD, or a combination of the bacteria and the active agent. The number of paralyzed nematodes was determined 96 h after induction of Aβ accumulation.

C=C(C)[C@@H]1CCC(C)=C[C@H]1c1c(O)cc(CCCCC)cc1O [CBD, cannabidiol]
number of paralyzed nematodes (0.08% (v/v), 96 h, FIGS. 3 and 4): reduced | paralytic nematodes, individually (Example 3, 96 h after induction of Aβ accumulation, FIGS. 7 and 8): reduction in paralytic nematodes | effect of combination with Pseudomonas fluorescens (combination of Pseudomonas fluorescens and active agent, 96 h after induction of Aβ accumulation, FIGS. 7 and 8): strong synergistic increase in effect | effect of additional treatment with the active agent on the effect of the probiotic bacterial mixture (in combination with probiotic bacterial mixture, 72 h after induction of Aβ accumulation, FIG. 1): significantly increased the effect of probiotic bacteria

Lactobacillus plantarum
paralysis due to Aβ accumulation (bacteria grown to stationary phase, mixed with OP50 E. coli diet, 96 h, FIGS. 3 and 4): reduction in paralysis | prevention of the effects of Aβ accumulation by combination of bacterium with active agents (stationary-phase bacteria combined with curcumin, CBD, THCA or combinations thereof, 96 h, FIGS. 3 and 4): significant to synergistic prevention of the effects of Aβ accumulation

CCCCCc1cc2c(c(O)c1C(=O)O)[C@@H]1C=C(C)CC[C@H]1C(C)(C)O2 [THCA, delta-9-tetrahydrocannabinolic acid]
number of paralyzed nematodes (60 μl, 96 h, FIGS. 3 and 4): reduced
